What was measured:
[1] = system: Monocotyledonous and dicotyledonous weed; test: Post-emergence test experiment, weed control effect (Table 2); type: in vivo; design: key to weed control effect, Setaria viridis (level) / weed control effect, Rorippa indica (level) / weed control effect, Abutilon theophrasti (level) / weed control effect, Echinochloa crus-galli (level) / weed control effect, Digitaria sanguinalis (level): Level 10: completely dead; Level 9: above 90% growth inhibition rate; Level 8: above 80% growth inhibition rate; Level 7: above 70% growth inhibition rate; Level 6: above 60% growth inhibition rate; Level 5: above 50% growth inhibition rate; Level 4: above 30% growth inhibition rate; Level 3: above 20% growth inhibition rate; Level 2: above 10% growth inhibition rate; Level 1: above 1-10% growth inhibition rate; Level 0: no effect; details: 3 weeks after spraying, greenhouse
Outline: (§1)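 Compounds, dissolved in acetone, mixed with Tween 80 and diluted in water, were sprayed post-emergence onto greenhouse-grown weeds and crops at the 2-3 leaf stage (2-3 weeks post-sowing). Plants then grown 3 more weeks in the greenhouse before evaluation.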

[2] = system: main crop (wheat, corn, rice, soybean, cotton, oilseed, millet and sorghum); test: Post-emergence test experiment, main crops (Table 2); type: in vivo; design: key: Level 10: completely dead; Level 9: above 90% growth inhibition rate; Level 8: above 80% growth inhibition rate; Level 7: above 70% growth inhibition rate; Level 6: above 60% growth inhibition rate; Level 5: above 50% growth inhibition rate; Level 4: above 30% growth inhibition rate; Level 3: above 20% growth inhibition rate; Level 2: above 10% growth inhibition rate; Level 1: above 1-10% growth inhibition rate; Level 0: no effect; details: 3 weeks after spraying, greenhouse
Outline: as §1

In the case of `CCc1nn(C(C)C)c(OC(=O)c2cn(C)nc2C)c1C(=O)c1ccc(S(C)(=O)=O)c(Cn2cccn2)c1Cl` [Compound 99], the “weed control effect, Abutilon theophrasti (level)” value ([1]; 30 g/ha) is reported as 7 (Level 7: above 70% growth inhibition rate), the “weed control effect, Bidens pilosa (level)” value ([1]; 30 g/ha) is reported as 7 (Level 7: above 70% growth inhibition rate) and the “weed control effect, Digitaria sanguinalis (level)” value ([1]; 30 g/ha) is reported as 7 (Level 7: above 70% growth inhibition rate). For the same compound, the “weed control effect, Echinochloa crus-galli (level)” value ([1]; 30 g/ha) was 10, the “weed control effect, Rorippa indica (level)” value ([1]; 30 g/ha) was 10 and the “weed control effect, Setaria viridis (level)” value ([1]; 30 g/ha) was 8 (Level 8: above 80% growth inhibition rate). For the same compound, the “effect on crop, corn (level)” value ([2]; 30 g/ha) was 1 (Level 1: above 1-10% growth inhibition rate), the “effect on crop, rice (level)” value ([2]; 30 g/ha) was 1 (Level 1: above 1-10% growth inhibition rate) and the “effect on crop, wheat (level)” value ([2]; 30 g/ha) was 0.

For `Cc1cnn(Cc2c(S(C)(=O)=O)ccc(C(=O)c3c(C)nn(C)c3OC(=O)c3cn(C)nc3C)c2Cl)c1` [Compound 04], the “weed control effect, Abutilon theophrasti (level)” value ([1]; 120 g/ha) was 6 (Level 6: above 60% growth inhibition rate), the “weed control effect, Bidens pilosa (level)” value ([1]; 120 g/ha) was 6 (Level 6: above 60% growth inhibition rate) and the “weed control effect, Digitaria sanguinalis (level)” value ([1]; 120 g/ha) was 1 (Level 1: above 1-10% growth inhibition rate). For the same compound, the “weed control effect, Echinochloa crus-galli (level)” value ([1]; 120 g/ha) was 10, the “weed control effect, Rorippa indica (level)” value ([1]; 120 g/ha) was 4 (Level 4: above 30% growth inhibition rate) and the “weed control effect, Setaria viridis (level)” value ([1]; 120 g/ha) was 5 (Level 5: above 50% growth inhibition rate). The “effect on crop, corn (level)” value ([2]; 120 g/ha) was 0, the “effect on crop, rice (level)” value ([2]; 120 g/ha) was 0 and the “effect on crop, wheat (level)” value ([2]; 120 g/ha) was 0.

For `CCOc1c(C(=O)Oc2c(C(=O)c3ccc(S(C)(=O)=O)c(Cn4nc(C)cc4C)c3Cl)cnn2CC)cnn1C` [Compound 93], the “weed control effect, Abutilon theophrasti (level)” value ([1]; 120 g/ha) was 6 (Level 6: above 60% growth inhibition rate), the “weed control effect, Bidens pilosa (level)” value ([1]; 120 g/ha) was 6 (Level 6: above 60% growth inhibition rate) and the “weed control effect, Digitaria sanguinalis (level)” value ([1]; 120 g/ha) was 1 (Level 1: above 1-10% growth inhibition rate). For the same compound, the “weed control effect, Echinochloa crus-galli (level)” value ([1]; 120 g/ha) was 10, the “weed control effect, Rorippa indica (level)” value ([1]; 120 g/ha) was 4 (Level 4: above 30% growth inhibition rate) and the “weed control effect, Setaria viridis (level)” value ([1]; 120 g/ha) was 3 (Level 3: above 20% growth inhibition rate). For the same compound, the “effect on crop, corn (level)” value ([2]; 120 g/ha) was 0, the “effect on crop, rice (level)” value ([2]; 120 g/ha) was 0 and the “effect on crop, wheat (level)” value ([2]; 120 g/ha) was 0.

`Cc1cnn(Cc2c(S(C)(=O)=O)ccc(C(=O)c3cnn(C)c3OC(=O)c3cnn(C)c3)c2Cl)c1` [Compound 17] was tested, and the “weed control effect, Abutilon theophrasti (level)” value ([1]; 120 g/ha) was 6 (Level 6: above 60% growth inhibition rate), the “weed control effect, Bidens pilosa (level)” value ([1]; 120 g/ha) was 6 (Level 6: above 60% growth inhibition rate) and the “weed control effect, Digitaria sanguinalis (level)” value ([1]; 120 g/ha) was 0. For the same compound, the “weed control effect, Echinochloa crus-galli (level)” value ([1]; 120 g/ha) was 10, the “weed control effect, Rorippa indica (level)” value ([1]; 120 g/ha) was 4 (Level 4: above 30% growth inhibition rate) and the “weed control effect, Setaria viridis (level)” value ([1]; 120 g/ha) was 1 (Level 1: above 1-10% growth inhibition rate). For the same compound, the “effect on crop, corn (level)” value ([2]; 120 g/ha) was 0, the “effect on crop, rice (level)” value ([2]; 120 g/ha) was 0 and the “effect on crop, wheat (level)” value ([2]; 120 g/ha) was 0.

For `CCOc1c(C(=O)Oc2c(C(=O)c3ccc(S(C)(=O)=O)c(Cn4cc(C)cn4)c3C)c(C3CC3)nn2C)cnn1C` [Compound 81], the “weed control effect, Abutilon theophrasti (level)” value ([1]; 120 g/ha) was 6 (Level 6: above 60% growth inhibition rate), the “weed control effect, Bidens pilosa (level)” value ([1]; 120 g/ha) was 6 (Level 6: above 60% growth inhibition rate) and the “weed control effect, Digitaria sanguinalis (level)” value ([1]; 120 g/ha) was 1 (Level 1: above 1-10% growth inhibition rate). For the same compound, the “weed control effect, Echinochloa crus-galli (level)” value ([1]; 120 g/ha) was 10, the “weed control effect, Rorippa indica (level)” value ([1]; 120 g/ha) was 4 (Level 4: above 30% growth inhibition rate) and the “weed control effect, Setaria viridis (level)” value ([1]; 120 g/ha) was 3 (Level 3: above 20% growth inhibition rate). For the same compound, the “effect on crop, corn (level)” value ([2]; 120 g/ha) was 0, the “effect on crop, rice (level)” value ([2]; 120 g/ha) was 0 and the “effect on crop, wheat (level)” value ([2]; 120 g/ha) was 0.

`Cc1cc(C)n(Cc2c(S(C)(=O)=O)ccc(C(=O)c3c(C)nn(C(C)C)c3OC(=O)c3nn(C)cc3Cl)c2Cl)n1` [Compound 103] was tested, and the “weed control effect, Abutilon theophrasti (level)” value ([1]; 120 g/ha) was 7 (Level 7: above 70% growth inhibition rate), the “weed control effect, Bidens pilosa (level)” value ([1]; 120 g/ha) was 7 (Level 7: above 70% growth inhibition rate) and the “weed control effect, Digitaria sanguinalis (level)” value ([1]; 120 g/ha) was 2 (Level 2: above 10% growth inhibition rate). For the same compound, the “weed control effect, Echinochloa crus-galli (level)” value ([1]; 120 g/ha) was 10, the “weed control effect, Rorippa indica (level)” value ([1]; 120 g/ha) was 10 and the “weed control effect, Setaria viridis (level)” value ([1]; 120 g/ha) was 3 (Level 3: above 20% growth inhibition rate). For the same compound, the “effect on crop, corn (level)” value ([2]; 120 g/ha) was 1 (Level 1: above 1-10% growth inhibition rate), the “effect on crop, rice (level)” value ([2]; 120 g/ha) was 0 and the “effect on crop, wheat (level)” value ([2]; 120 g/ha) was 0.

Reference: US10556888B2, “Pyrazole compounds or salts thereof, preparation methods therefor, herbicidal compositions and use thereof” (QINGDAO KINGAGROOT CHEMICAL COMPOUNDS CO., LTD, priority 2015, dated 2020)
